Assay results published in patent US8975261B2, “Aryloxmethyl cyclopropane derivatives as PDE10 inhibitors” (Merck Sharp & Dohme Corp., priority 2011, dated 2015).

Target: human PDE10A2 (Homo sapiens (Human), UniProt Q9Y233)
Test: PDE10 fluorescence polarization (IMAP FP) inhibition assay
Format: biochemical
Conditions: human PDE10A2 from transfected AD293 cell lysate; FAM-labeled cAMP 50 nM; room temperature; read-out: PDE10A Ki
Description: The activity of the compounds in accordance with the present invention as PDE10 inhibitors may be readily determined without undue experimentation using a fluorescence polarization (FP) methodology that is well known in the art (Huang, W., et al., J. Biomol Screen, 2002, 7: 215).
In a typical experiment the PDE10 inhibitory activity of the compounds of the present invention was determined in accordance with the following experimental method. PDE10A2 was amplified from human fetal brain cDNA (Clontech, Mountain View, Calif.) using a forward primer corresponding to nucleotides 56-77 of human PDE10A2 (Accession No. AF127480, Genbank Identifier 4894716), containing a Kozak consensus sequence, and a reverse primer corresponding to nucleotides 2406-2413 of human PDE10A2 (Accession No. AF127480, Genbank Identifier 4894716). Amplification with Easy-A polymerase (Stratagene, La Jolla, Calif.) was 95° C. for 2 minutes followed by thirty three cycles of 95° C. for 40 seconds, 55° C. for 30 seconds, and 72° C. for 2 minutes 48 seconds. Final extension was 72° C. for 7 minutes. The PCR product was TA cloned into pcDNA3.2-TOPO (Invitrogen, Carlsbad, Calif.) according to standard protocol. AD293 cells with 70-80% confluency were transiently transfected with human PDE10A2/pcDNA3.2-TOPO using Lipofectamine 2000 according to manufacturer specifications (Invitrogen, Carlsbad, Calif.). Cells were harvested 48 hours post-transfection and lysed by sonication (setting 3, 10×5 sec pulses) in a buffer containing 20 mM HEPES, 1 mM EDTA and protease inhibitor cocktail (Roche). Lysate was collected by centrifugation at 75,000×g for 20 minutes. Supernatant containing the cytoplasmic fraction was used for evaluation of PDE10A2 activity. The fluorescence polarization assay for cyclic nucleotide phosphodiesterases was performed using an IMAP® FP kit supplied by Molecular Devices, Sunnyvale, Calif. (product #R8139). IMAP® technology has been applied previously to phosphodiesterase assays (Huang, W., et al., J. Biomol Screen, 2002, 7: 215). Assays were performed at room temperature in 384-well microtiter plates with an incubation volume of 20.2 μL. Solutions of test compounds were prepared in DMSO and serially diluted with DMSO to yield 8 μL of each of 10 solutions differing by 3-fold in concentration, at 32 serial dilutions per plate. 100% inhibition is determined using a known PDE10 inhibitor, which can be any compound that is present at 5,000 times its Ki value in the assay described as follows, such as papaverine (see Siuciak, et al. Neuropharmacology (2006) 51:386-396; Becker, et al. Behav Brain Res (2008) 186(2):155-60; Threlfell, et al., J Pharmacol Exp Ther (2009) 328(3):785-795), 2-[4-[pyridin-4-yl-1-(2,2,2-trifluoroethyl)-1H-pyrazol-3-yl]phenoxymethyl]quinoline succinic acid or 2-[4-(1-methyl-4-pyridin-4-yl-1H-pyrazol-3-yl)-phenoxymethyl]quinoline succinic acid (see Schmidt, et al. J Pharmacol Exp Ther (2008) 325:681-690; Threlfell, et al., J Pharmacol Exp Ther (2009) 328(3): 785-795). 0% of inhibition is determined by using DMSO (1% final concentrations). A Labcyte Echo 555 (Labcyte, Sunnyvale, Calif.) is used to dispense 200 nL from each well of the titration plate to the 384 well assay plate. A solution of enzyme (1/7000 dilution from aliquots; sufficient to produce 20% substrate conversion) and a separate solution of FAM-labeled cAMP PDE from Molecular Devices (product #R7506), at a final concentration of 50 nM are made in the assay buffer (10 mM Tris HCl, pH 7.2, 10 mM MgCl2, 0.05% NaN3 0.01% Tween-20, and 1 mM DTT). The enzyme is added to the assay plates by the addition of 10 μL of enzyme solution to each well, shaken to mix and incubated at room temperature for 60 minutes. The substrate is then added to the assay plates by the addition of 10 uL of substrate solution to each well, shaken to mix, and incubated at room temperature for 60 minutes. […]

human PDE10A2, sequence (Q9Y233 267-1055): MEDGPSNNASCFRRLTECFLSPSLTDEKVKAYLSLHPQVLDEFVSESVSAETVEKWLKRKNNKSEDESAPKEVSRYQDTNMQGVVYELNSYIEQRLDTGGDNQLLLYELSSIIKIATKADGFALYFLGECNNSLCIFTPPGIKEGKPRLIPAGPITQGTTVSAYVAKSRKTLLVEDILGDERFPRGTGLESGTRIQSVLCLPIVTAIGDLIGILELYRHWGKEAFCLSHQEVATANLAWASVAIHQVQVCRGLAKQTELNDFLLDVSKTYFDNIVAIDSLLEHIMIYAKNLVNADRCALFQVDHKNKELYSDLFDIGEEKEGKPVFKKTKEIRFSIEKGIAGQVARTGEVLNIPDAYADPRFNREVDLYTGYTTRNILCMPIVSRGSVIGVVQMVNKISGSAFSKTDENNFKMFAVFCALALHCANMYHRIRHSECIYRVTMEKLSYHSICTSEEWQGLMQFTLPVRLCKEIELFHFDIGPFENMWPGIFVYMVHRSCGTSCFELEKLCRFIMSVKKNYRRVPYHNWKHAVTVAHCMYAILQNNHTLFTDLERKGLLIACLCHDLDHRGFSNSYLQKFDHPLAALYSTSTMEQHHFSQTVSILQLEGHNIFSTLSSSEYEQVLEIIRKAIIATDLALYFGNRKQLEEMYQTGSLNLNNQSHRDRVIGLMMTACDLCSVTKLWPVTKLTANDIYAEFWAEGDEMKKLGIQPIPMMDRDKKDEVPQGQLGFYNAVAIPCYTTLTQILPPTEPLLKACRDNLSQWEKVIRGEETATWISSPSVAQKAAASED

SMILES | Ki [nM]
COc1ccc([C@H]2C[C@@H]2COc2nc(C)ncc2-c2ccc(C)nc2)nc1 [1-73, 4-{[(1S,2S)-2-(5-methoxypyridin-2-yl)cyclopropyl]methoxy}-2-methyl-5-(6-methylpyridin-3-yl)pyrimidine] | 0.8
COc1ccc([C@H]2C[C@@H]2COc2ncc(C)cc2-c2cnn3c2CCC3)nc1 [1-39, 3-(2-{[(1S,2S)-2-(5-methoxypyridin-2-yl)cyclopropyl]methoxy}-5-methylpyridin-3-yl)-5,6-dihydro-4H-pyrrolo[1,2-b]pyrazole] | 0.34
Cc1ncc(-c2cnn(C)c2)c(OC[C@H]2C[C@@H]2c2ccn(C)n2)n1 [1-54, 2-methyl-5-(1-methyl-1H-pyrazol-4-yl)-4-{[(1S,2S)-2-(1-methyl-1H-pyrazol-3-yl)cyclopropyl]methoxy}-pyrimidine] | 3.2
COc1ccc([C@H]2C[C@@H]2COc2nc(C)ncc2-c2cnn(C)c2)nc1 [MM4, 4-{[(1S,2S)-2-(5-methoxypyridin-2-yl)cyclopropyl]methoxy}-2-methyl-5-(1-methyl-1H-pyrazol-4-yl)pyrimidine] | 0.25
COc1ccc([C@H]2C[C@@H]2COc2nc(C)ncc2-c2nnc(C3CC3)s2)nc1 [1-55, 5-(5-cyclopropyl-1,3,4-thiadiazol-2-yl)-4-{[(1S,2S)-2-(5-methoxypyridin-2-yl)cyclopropyl]methoxy}-2-methylpyrimidine] | 4.2
COc1ccc([C@H]2C[C@@H]2COc2nc(C)ncc2/C=C/c2cccnc2)nc1 [TT1, 4-{[(1S,2S)-2-(5-methoxypyridin-2-yl)cyclopropyl]methoxy}-2-methyl-5-[(E)-2-(pyridin-3-yl)ethenyl]pyrimidine] | 0.6

Further lines, results first:

Ki [nM] | SMILES
0.23 | COc1ccc([C@H]2C[C@@H]2COc2nc3cccnc3cc2-c2cnn(CCO)c2)nc1 [LL3, 2-[4-(2-{[(1S,2S)-2-(5-methoxypyridin-2-yl)cyclopropyl]methoxy}-1,5-naphthyridin-3-yl)-1H-pyrazol-1-yl]ethanol]
0.04 | Cn1cc(-c2cc3ccncc3nc2OC[C@H]2C[C@@H]2c2ccc3ncccc3n2)cn1 [1-42, 2-[(1S,2S)-2-({[3-(1-methyl-1H-pyrazol-4-yl)-1,7-naphthyridin-2-yl]oxy}methyl)cyclo-propyl]-1,5-naphthyridine]
0.15 | COc1ccc([C@H]2C[C@@H]2COc2nc(C)ncc2C2=CCC(O)CC2)nc1 (stereo partly drawn) [1-31, 4-(4-{[(1S,2S)-2-(5-methoxypyridin-2-yl)cyclopropyl]methoxy}-2-methylpyrimidin-5-yl)cyclohex-3-en-1-ol]
0.22 | COc1ccc([C@H]2C[C@@H]2COc2nc(C)c(C)nc2-c2cncc(OC)c2)nc1 [1-36, 2-(5-methoxypyridin-3-yl)-3-{[(1S,2S)-2-(5-methoxypyridin-2-yl)cyclopropyl]methoxy}-5,6-dimethylpyrazine]
2.5 | COc1ccc([C@H]2C[C@@H]2COc2nc3cccnc3cc2C2CCCN(C(C)=O)C2)nc1 (stereo partly drawn) [RR4, 1-[3-(2-{[(1S,2S)-2-(5-methoxypyridin-2-yl)cyclopropyl]methoxy}-1,5-naphthyridin-3-yl)piperidin-1-yl]ethanone]
0.78 | COc1ccc([C@H]2C[C@@H]2COc2nc(C)ncc2-c2csc(C)n2)nc1 [1-57, 4-{[(1S,2S)-2-(5-methoxypyridin-2-yl)cyclopropyl]methoxy}-2-methyl-5-(2-methyl-1,3-thiazol-4-yl)pyrimidine]
60.8 | COc1ccc([C@H]2C[C@@H]2COc2nc(C)ncc2CN2CCC(F)(F)C2)nc1 [SS1, 5-[(3,3-difluoropyrrolidin-1-yl)methyl]-4-{[(1S,2S)-2-(5-methoxypyridin-2-yl)cyclopropyl]methoxy}-2-methylpyrimidine]
0.002 | Cc1ncc(-c2c(C)nn(C)c2C)c(OC[C@H]2C[C@@H]2c2ccc3ccccc3n2)n1 [1-46, 2-[(1S,2S)-2-({[2-methyl-5-(1,3,5-trimethyl-1H-pyrazol-4-yl)pyrimidin-4-yl]oxy}methyl)cyclopropyl]quinoline]
